One series relates to blood pressure. Kind of series: Hypotensive action in rats under urethane narcosis (carotid artery blood pressure, intravenous administration). The series is classed as in vivo, male Sprague-Dawley rats. The note with it: rat; for ED20: iv, urethane narcosis 1.78 g/kg i.p., compound i.v. into jugular vein, read-out: Hypotensive action ED 20% (dose which caused a 20% reduction in blood pressure); for Hypotensive action R.A. (relative activity, Urapidil = 1.00): urethane narcosis, i.v., relative to Urapidil = 1.00. The method, then: Male Sprague-Dawley rats weighing 220-280 g were used, under urethane narcosis (1.78 g/kg, administered intraperitoneally) for the investigation. The blood pressure was measured directly in the carotid artery. The compound was administered intravenously into the jugular vein. The dose (mg/kg) which caused a 20% reduction in blood pressure was determined as the ED 20%. | ^(1) Rat. Urethane narcosis. Intravenous administration. | ^(2) Relative activity.

A short description of series [1]: Acute toxicity, intraperitoneal administration. To be noted: in vivo, ip, mouse, groups of 10 female NMRI mice, read-out: Toxicity LD 50. How it is done:
In addition to the hypotensive action, the acute toxicity (LD 50, mg/kg), for intraperitoneal administration, was determined for groups of 10 female NMRI mice, weighing 22-27 g.
^(3) Mouse. Intraperitoneal

The nature of series [2]: Therapeutic range / therapeutic index (quotient of LD 50 and ED 20%). To be noted: in vivo; quotient of LD 50 (mouse i.p.) and ED 20% (rat i.v.). An excerpt: The therapeutic range is the quotient of the LD 50 and the ED 20%.

In the case of `COc1ccccc1N1CCN(CC(O)COc2cccc(-c3nnc(C)o3)c2)CC1` (stereo not shown) [Example 10, 1-[3-(5-Methyl-1,3,4-oxadiazol-2-yl)-phenoxy]-3-[4-(2-methoxyphenyl)-piperazin-1-yl]-propan-2-ol], in the series with blood pressure, the ED20 was determined as 0.0333 mg/kg and the “Hypotensive action R.A. (relative activity, Urapidil = 1.00)” value came to 5.68. Also, in series [1], the LD50 was found to be 224 mg/kg. In series [2], the selectivity ratio is 6730.

Regarding `CCOc1ccccc1N1CCN(CC(O)COc2cccc(-c3nnc(C)o3)c2)CC1` (stereo not shown) [Example 12, 1-[3-(5-Methyl-1,3,4-oxadiazol-2-yl)-phenoxy]-3-[4-(2-ethoxyphenyl)-piperazin-1-yl]-propan-2-ol], in the series on blood pressure, the ED20 came to 0.0195 mg/kg and the “Hypotensive action R.A. (relative activity, Urapidil = 1.00)” value is 9.69. Moreover, the LD50 in series [1] worked out at 162 mg/kg. Besides, the selectivity ratio in series [2] was 8300.

`CCOc1ccccc1N1CCN(CC(O)COc2cccc(-c3nnco3)c2)CC1` (stereo not shown) [Example 9, 1-[3-(1,3,4-Oxadiazol-2-yl)-phenoxy]-3-[4-(2-ethoxyphenyl)-piperazin-1-yl]-propan-2-ol]: in the series on blood pressure, the ED20 stood at 0.0084 mg/kg and the “Hypotensive action R.A. (relative activity, Urapidil = 1.00)” value came to 22.50. Further, in series [1], the LD50 was found to be 215 mg/kg. Besides, the selectivity ratio in series [2] stood at 25600.

As for `COc1ccccc1N1CCN(CCCNc2cc(=O)n(C)c(=O)n2C)CC1` [Urapidil, 6-{3-[4-(2-methoxyphenyl)-piperazin-1-yl]-propylamino}-1,3-dimethyluracil, reference compound], in the series on blood pressure, the ED20 stood at 0.189 mg/kg and the “Hypotensive action R.A. (relative activity, Urapidil = 1.00)” value is reported as 1.00. Moreover, the LD50 in series [1] came out at 362 mg/kg. The selectivity ratio in series [2] was determined as 1920.

For the compound `COc1ccccc1N1CCN(CC(O)COc2ccccc2-c2nnc(C)o2)CC1` (stereo not shown) [Example 2], in the series on blood pressure, the ED20 came to 0.0221 mg/kg and the “Hypotensive action R.A. (relative activity, Urapidil = 1.00)” value came out at 8.55. Besides, the LD50 in series [1] came to 56.2 mg/kg. Moreover, the selectivity ratio in series [2] stood at 2540.

In the case of `COc1ccccc1N1CCN(CC(O)COc2cccc(-c3nnco3)c2)CC1` (stereo not shown) [Example 7, 1-[3-(1,3,4-Oxadiazol-2-yl)-phenoxy]-3-[4-(2-methoxyphenyl)piperazin-1-yl]-propan-2-ol], in the series with blood pressure, the ED20 was 0.0754 mg/kg and the “Hypotensive action R.A. (relative activity, Urapidil = 1.00)” value is 2.51. In addition, in series [1], the LD50 stood at 215 mg/kg. The selectivity ratio in series [2] was found to be 2850.

Turning to `Cc1nnc(-c2cccc(OCC(O)CN3CCN(c4ccccc4Cl)CC3)c2)o1` (stereo not shown) [Example 16, 1-[3-(5-Methyl-1,3,4-oxadiazol-2-yl)-phenoxy]-3-[4-(2-chlorophenyl)-piperazin-1-yl]-propan-2-ol], in the series with blood pressure, the ED20 came to 0.0716 mg/kg and the “Hypotensive action R.A. (relative activity, Urapidil = 1.00)” value is on record as 2.64. Moreover, in series [1], the LD50 was 178 mg/kg. Moreover, the selectivity ratio in series [2] came to 2490.

The values are drawn from US4353904A, “Phenylpiperazine derivatives of 1,3,4-oxadiazolylphenols, and therapeutic agents containing these compounds” (BASF Aktiengesellschaft, priority 1980, dated 1982).
